Measured values from patent US8829194B2, “Crystalline forms of the sodium salt of (4-{4-[5-(6-trifluoromethyl-pyridin-3-ylamino)-pyridin-2-yl]-phenyl}-cyclohexyl)-acetic acid” (Novartis AG, priority 2010, dated 2014).
Where two headings read alike, the source gives them in different places.

Legend:
Assay type in all cases: physicochemical
[1] = Hygroscopicity (statement, no method given)
[2] = Water loss as a function of temperature by TG/DTA (loss on drying, thermal transitions); conditions: for LOD (thermal transitions): DTA signals, temperature at which the water is lost; for Loss On Drying (LOD) (%): total water loss by thermogravimetry, rt-295° C., 10°/min
From the text: (ii) Thermogravimetric/Differential Thermal Analysis (TG/DTA) […]
The data listed below show the total water loss (LOD by thermogravimetry (TG)) and thermal transitions (DTA signals) show the temperature at which the water is lost.

[3] = Humidity microbalance analysis (VTI), moisture sorption at 25° C.; conditions: for hygroscopicity / moisture uptake in words: variations in humidity
From the text: Thus, Modification C retains a stable weight from 0% relative humidity to 80% relative humidity while Modification A loses water with decreasing humidity and gains moisture with increasing humidity. With Modification C, a re-hydration step and the possible variability in water content between batches may thus be eliminated.
Modification N is particularly suitable for industrial scale-up. It is a crystalline anhydrous form.
Modification O is particularly suitable for industrial scale-up. It is a crystalline anhydrous form.

[4] = Physical stability of the crystalline forms (relative humidity, absorption-desorption isotherm FIG. 1, temperature, storage); conditions: for physical stability (change into another form): storage / ambient conditions
[5] = Dynamic vapor absorption experiment; conditions: dried product of Example 20
Description: 2.0 g of Modification A, 17 mL of THF and 17 mL of 200-proof ethanol are added to a jacketed 100-mL glass reactor equipped with an overhead stirrer. The mixture is heated to approximately 50° C. with vigorous agitation to obtain a clear solution. To the warm solution, 3 mL of heptanes are added. In a small glass vial, 0.02 g of seed particles (Modification C, prepared from a previous batch) are added to 1 mL of heptanes, and the slurry is sonicated for approximately 1 minute. The seed slurry is then added to the warm solution to obtain a turbid solution at 50° C. To the turbid solution, 35 mL of heptanes are added as follows. First, 5 mL of heptanes are added over a 30-min period, followed by 75-min hold. Subsequently, an additional 30 m L of heptanes are added over 1.5 hours. The resulting thick slurry is cooled to 10° C. in 50 minutes. The slurry is filtered by vacuum, and the wet cake is washed with 25 mL of anhydrous THF and dried at 65° C. and 10 mbar. […] Based on Karl Fisher analysis, the dried solid contained 3.6% water.

[6] = Vacuum thermogravimetric analysis (VTGA): drying and re-exposure to ambient conditions; conditions: for hygroscopicity in words: concluded from VTGA re-exposure; for time until sample mass decreases to a steady value (drying complete): vacuum 50 mbar, 50° C., wet solid
Description: The wet solid obtained by filtering the crystallization slurry is placed in a cup placed in a cell (i.e., a small chamber) and suspended form a microbalance; vacuum is applied to the cell, and the chamber is subsequently heated. The sample mass is monitored and recorded continuously, indicating when the sample drying is complete and if moisture uptake occurs when the cell is opened to the ambient atmosphere.
1.1149 g of Modification A solid, 0.089 g of distilled water and 10 mL of acetonitrile are added to a glass vial. The mixture is stirred vigorously at 20° C. for 18 hours. The mixture is filtered using vacuum and the wet cake is dried in a VTGA cell at approximately 50° C. and 20 mbar for approximately 5 hours.
1.2137 g of Modification A solids and 15 mL of anhydrous THF, 99.9%, are added to a glass vial. The mixture is heated to 45° C. with vigorous stirring. After slurrying at 45° C. for approximately 19 hours, the sample is filtered by vacuum and the wet cake is dried using the VTGA at approximately 50° C. and 20 mbar for approximately 5 hours.

[7] = Solubility in common process solvents

Mass uptake (% water absorbed) ([3]; 0 % residual humidity) [%]	Mass uptake (% water absorbed) ([3]; 10 % residual humidity) [%]	Mass uptake (% water absorbed) ([3]; 50 % residual humidity) [%]	Mass uptake (% water absorbed) ([3]; 60 % residual humidity) [%]	Mass uptake (% water absorbed) ([3]; 70 % residual humidity) [%]	Mass uptake (% water absorbed) ([3]; 79 % residual humidity) [%]	Mass uptake (% water absorbed) ([3]; 90 % residual humidity) [%]	Mass uptake (% water absorbed) ([3]; 95 % residual humidity) [%]	Loss On Drying (LOD) (%) [2] [%]	time until sample mass decreases to a steady value (drying complete) [6]	SMILES	hygroscopicity / moisture uptake in words [3]	physical stability (change into another form) [4]	other results
–	–	–	–	–	–	–	–	–	–	O=C([O-])C[C@H]1CC[C@H](c2ccc(-c3ccc(Nc4ccc(C(F)(F)F)nc4)cn3)cc2)CC1.[Na+] [Modification K, sodium salt of (4-{4-[5-(6-trifluoromethyl-pyridin-3-ylamino)-pyridin-2-yl]-phenyl}-cyclohexyl)-acetic acid]	–	–	hygroscopicity in words [1]: low hygroscopicity; LOD (thermal transitions) ([2]; listed as K): 134.5 °C; Loss On Drying (LOD) (%) ([2]; listed as K): 2.4%
0.0	0.0	0.1	0.2	0.4	0.8	12.0	15.6	2.8	less than 1 hours	O=C([O-])C[C@H]1CC[C@H](c2ccc(-c3ccc(Nc4ccc(C(F)(F)F)nc4)cn3)cc2)CC1.[Na+] [Modification C, sodium salt of (4-{4-[5-(6-trifluoromethyl-pyridin-3-ylamino)-pyridin-2-yl]-phenyl}-cyclohexyl)-acetic acid]	does not lose or gain moisture	does not change into another form under ambient conditions	relative humidity at which moisture gain starts / becomes significant ([3]; listed as Form C): > 80 % relative humidity; temperature above which water is lost ([4]; heating): over 85 °C; hygroscopicity in words [5]: much lower hygroscopicity than Modification A; mass uptake of moisture ([5]; from 0 to 80% relative humidity): 0.3%; LOD (thermal transitions) ([2]; listed as C): 126 °C; LOD (thermal transitions) ([2]; listed as modification C): 126 °C; mass change upon opening the cell to the ambient environment ([6]; Example 17, after drying at 50° C. and 20 mbar, 30%-56% relative humidity): no mass change occurs; mass gain when the dried solid was exposed to air ([6]; Example 18, approximately 15 hours at 20° C. and 43-59% relative humidity): No mass gain was observed; sample mass change upon opening the cell ([6]; after drying, 1000 mbar, ambient temperature): the sample mass does not change; hygroscopicity in words ([6]; listed as Form C): not hygroscopic
0.0	3.9	12.0	12.0	17.3	17.5	17.4	17.1	9.1	about 18 hours	O=C([O-])C[C@H]1CC[C@H](c2ccc(-c3ccc(Nc4ccc(C(F)(F)F)nc4)cn3)cc2)CC1.[Na+] [Modification A, sodium salt of (4-{4-[5-(6-trifluoromethyl-pyridin-3-ylamino)-pyridin-2-yl]-phenyl}-cyclohexyl)-acetic acid]	takes up much more moisture compared to Modification C	converts to another form in samples that have not been refrigerated	solubility in common process solvents [7]: relatively low; relative humidity at which moisture gain starts / becomes significant [3]: 10 % relative humidity; hygroscopicity in words ([4]; sorption profile FIG. 1): very hygroscopic; total mass gain due to moisture uptake upon opening the cell ([6]; after drying, 1000 mbar, ambient temperature, plateau at ca. 90 hours): 10.4%; hygroscopicity in words [6]: highly hygroscopic
